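Tested at 5 concentrations; 48 h exposure; 96-well plates; endpoints linearly interpolated, else capped at highest concentration. TGI denotes the concentration required for complete inhibition of growth.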
Assays:
Test in all cases: NCI anticancer screen, dose series, 48 h
786-0 renal = tested on: 786-0 renal
A498 renal = tested on: A498 renal
A549 NSCLC = tested on: A549 NSCLC
ACHN renal = tested on: ACHN renal
BT-549 breast = tested on: BT-549 breast
CCRF-CEM leukemia = tested on: CCRF-CEM leukemia
COLO 205 colon = tested on: COLO 205 colon
DU-145 prostate = tested on: DU-145 prostate
EKVX NSCLC = tested on: EKVX NSCLC
HCC-2998 colon = tested on: HCC-2998 colon
HCT-116 colon = tested on: HCT-116 colon
HCT-15 colon = tested on: HCT-15 colon
HL-60(TB) leukemia = tested on: HL-60(TB) leukemia
HOP-62 NSCLC = tested on: HOP-62 NSCLC
HT29 colon = tested on: HT29 colon
IGROV1 ovarian = tested on: IGROV1 ovarian
K-562 leukemia = tested on: K-562 leukemia
KM12 colon = tested on: KM12 colon
LOX IMVI melanoma = tested on: LOX IMVI melanoma
M14 melanoma = tested on: M14 melanoma
MALME-3M melanoma = tested on: MALME-3M melanoma
MCF7 breast = tested on: MCF7 breast
MDA-MB-231 breast = tested on: MDA-MB-231 breast
MDA-MB-435 = tested on: MDA-MB-435
MDA-N = tested on: MDA-N
MOLT-4 leukemia = tested on: MOLT-4 leukemia
NCI-H226 lung = tested on: NCI-H226 lung
NCI-H23 lung = tested on: NCI-H23 lung
NCI-H460 lung = tested on: NCI-H460 lung
NCI-H522 lung = tested on: NCI-H522 lung
NCI/ADR-RES ovarian = tested on: NCI/ADR-RES ovarian
OVCAR-3 ovarian = tested on: OVCAR-3 ovarian
OVCAR-4 ovarian = tested on: OVCAR-4 ovarian
OVCAR-5 ovarian = tested on: OVCAR-5 ovarian
OVCAR-8 ovarian = tested on: OVCAR-8 ovarian
RPMI-8226 leukemia = tested on: RPMI-8226 leukemia
RXF 393 renal = tested on: RXF 393 renal
SF-268 CNS = tested on: SF-268 CNS
SF-295 CNS = tested on: SF-295 CNS
SF-539 CNS = tested on: SF-539 CNS
SK-MEL-2 melanoma = tested on: SK-MEL-2 melanoma
SK-MEL-28 melanoma = tested on: SK-MEL-28 melanoma
SK-MEL-5 melanoma = tested on: SK-MEL-5 melanoma
SK-OV-3 ovarian = tested on: SK-OV-3 ovarian
SN12C renal = tested on: SN12C renal
SNB-19 CNS = tested on: SNB-19 CNS
SNB-75 CNS = tested on: SNB-75 CNS
SR leukemia = tested on: SR leukemia
SW-620 colon = tested on: SW-620 colon
T-47D breast = tested on: T-47D breast
TK-10 renal = tested on: TK-10 renal
U251 CNS = tested on: U251 CNS
UACC-257 melanoma = tested on: UACC-257 melanoma
UACC-62 melanoma = tested on: UACC-62 melanoma
UO-31 renal = tested on: UO-31 renal
CAKI-1 renal = tested on: CAKI-1 renal
HOP-92 NSCLC = tested on: HOP-92 NSCLC
PC-3 prostate = tested on: PC-3 prostate

Structure (SMILES): O=C(O)c1ccccc1/C=C1\Cc2cc3c(cc2C1=O)CCC3
- TGI (786-0 renal): 70.5 µM
- TGI (A498 renal): 80.1 µM
- TGI (A549 NSCLC): > 100 µM
- TGI (ACHN renal): > 100 µM
- TGI (BT-549 breast): > 100 µM
- TGI (CCRF-CEM leukemia): 44.2 µM
- TGI (COLO 205 colon): 44.8 µM
- TGI (DU-145 prostate): > 100 µM
- TGI (EKVX NSCLC): > 100 µM
- TGI (HCC-2998 colon): 68.3 µM
- TGI (HCT-116 colon): 76.6 µM
- TGI (HCT-15 colon): 74.8 µM
- TGI (HL-60(TB) leukemia): 27.1 µM
- TGI (HOP-62 NSCLC): 65.2 µM
- TGI (HT29 colon): 49.1 µM
- TGI (IGROV1 ovarian): > 100 µM
- TGI (K-562 leukemia): 51.7 µM
- TGI (KM12 colon): > 100 µM
- TGI (LOX IMVI melanoma): 31.4 µM
- TGI (M14 melanoma): 53.7 µM
- TGI (MALME-3M melanoma): > 100 µM
- TGI (MCF7 breast): 68.5 µM
- TGI (MDA-MB-231 breast): 51.2 µM
- TGI (MDA-MB-435): 51.5 µM
- TGI (MDA-N): 38.9 µM
- TGI (MOLT-4 leukemia): 46.5 µM
- TGI (NCI-H226 lung): 80.8 µM
- TGI (NCI-H23 lung): 58.8 µM
- TGI (NCI-H460 lung): 81.9 µM
- TGI (NCI-H522 lung): 45.6 µM
- TGI (NCI/ADR-RES ovarian): 66.2 µM
- TGI (OVCAR-3 ovarian): > 100 µM
- TGI (OVCAR-4 ovarian): 85.7 µM
- TGI (OVCAR-5 ovarian): > 100 µM
- TGI (OVCAR-8 ovarian): > 100 µM
- TGI (RPMI-8226 leukemia): 55.2 µM
- TGI (RXF 393 renal): 56.5 µM
- TGI (SF-268 CNS): > 100 µM
- TGI (SF-295 CNS): 74.7 µM
- TGI (SF-539 CNS): 80.4 µM
- TGI (SK-MEL-2 melanoma): 55.4 µM
- TGI (SK-MEL-28 melanoma): > 100 µM
- TGI (SK-MEL-5 melanoma): 38.1 µM
- TGI (SK-OV-3 ovarian): > 100 µM
- TGI (SN12C renal): 56.8 µM
- TGI (SNB-19 CNS): > 100 µM
- TGI (SNB-75 CNS): 25 µM
- TGI (SR leukemia): 28.1 µM
- TGI (SW-620 colon): 60.4 µM
- TGI (T-47D breast): 45.6 µM
- TGI (TK-10 renal): 65.8 µM
- TGI (U251 CNS): 94.3 µM
- TGI (UACC-257 melanoma): 79.2 µM
- TGI (UACC-62 melanoma): 57.8 µM
- TGI (UO-31 renal): > 100 µM

Structure (SMILES): CCN(C(=O)N[C@@H](CC(C)C)C(=O)NCC(=O)OC)c1ccccc1
- TGI (786-0 renal): > 100 µM
- TGI (A549 NSCLC): > 100 µM
- TGI (ACHN renal): > 100 µM
- TGI (BT-549 breast): > 100 µM
- TGI (CAKI-1 renal): > 100 µM
- TGI (CCRF-CEM leukemia): > 100 µM
- TGI (COLO 205 colon): > 100 µM
- TGI (DU-145 prostate): > 100 µM
- TGI (EKVX NSCLC): > 100 µM
- TGI (HCC-2998 colon): > 100 µM
- TGI (HCT-116 colon): > 100 µM
- TGI (HCT-15 colon): > 100 µM
- TGI (HOP-62 NSCLC): > 100 µM
- TGI (HOP-92 NSCLC): > 100 µM
- TGI (HT29 colon): > 100 µM
- TGI (IGROV1 ovarian): > 100 µM
- TGI (K-562 leukemia): > 100 µM
- TGI (KM12 colon): > 100 µM
- TGI (LOX IMVI melanoma): > 100 µM
- TGI (M14 melanoma): > 100 µM
- TGI (MALME-3M melanoma): 51.1 µM
- TGI (MCF7 breast): > 100 µM
- TGI (MDA-MB-231 breast): > 100 µM
- TGI (MDA-MB-435): > 100 µM
- TGI (MDA-N): > 100 µM
- TGI (MOLT-4 leukemia): > 100 µM
- TGI (NCI-H226 lung): > 100 µM
- TGI (NCI-H23 lung): > 100 µM
- TGI (NCI-H460 lung): > 100 µM
- TGI (NCI-H522 lung): > 100 µM
- TGI (NCI/ADR-RES ovarian): > 100 µM
- TGI (OVCAR-3 ovarian): > 100 µM
- TGI (OVCAR-4 ovarian): > 100 µM
- TGI (OVCAR-5 ovarian): > 100 µM
- TGI (OVCAR-8 ovarian): > 100 µM
- TGI (PC-3 prostate): > 100 µM
- TGI (RPMI-8226 leukemia): > 100 µM
- TGI (RXF 393 renal): > 100 µM
- TGI (SF-295 CNS): > 100 µM
- TGI (SF-539 CNS): > 100 µM
- TGI (SK-MEL-2 melanoma): > 100 µM
- TGI (SK-MEL-28 melanoma): > 100 µM
- TGI (SK-MEL-5 melanoma): > 100 µM
- TGI (SK-OV-3 ovarian): > 100 µM
- TGI (SN12C renal): > 100 µM
- TGI (SNB-19 CNS): > 100 µM
- TGI (SNB-75 CNS): > 100 µM
- TGI (SR leukemia): > 100 µM
- TGI (SW-620 colon): > 100 µM
- TGI (T-47D breast): > 100 µM
- TGI (TK-10 renal): > 100 µM
- TGI (U251 CNS): > 100 µM
- TGI (UACC-257 melanoma): 61.9 µM
- TGI (UACC-62 melanoma): 97.1 µM
- TGI (UO-31 renal): > 100 µM
